# Reference: US11149018B2, “Substituted N-arylethyl-2-aminoquinoline-4-carboxamides and use thereof” (Bayer Aktiengesellschaft, priority 2017, dated 2021)
# Target: FP receptor (Homo sapiens (Human), UniProt P43088)
# Experiment: In vitro test of inhibition of human FP receptor activity (PGF2α-induced calcium flux in FP-expressing CHEM1 cells)
# Assay type: cell-based
# Conditions: PGF2α 2 nM, some mean values of multiple determinations
# Summary of the method: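 FP antagonism in FP-expressing CHEM1 cells loaded with Fluo-8. Compound preincubated 10 min at 37° C, then receptor stimulated with 2 nM (final) PGF2α in calcium-free Tyrode with 2 mM CaCl2.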
# FP receptor, sequence (P43088 whole entry): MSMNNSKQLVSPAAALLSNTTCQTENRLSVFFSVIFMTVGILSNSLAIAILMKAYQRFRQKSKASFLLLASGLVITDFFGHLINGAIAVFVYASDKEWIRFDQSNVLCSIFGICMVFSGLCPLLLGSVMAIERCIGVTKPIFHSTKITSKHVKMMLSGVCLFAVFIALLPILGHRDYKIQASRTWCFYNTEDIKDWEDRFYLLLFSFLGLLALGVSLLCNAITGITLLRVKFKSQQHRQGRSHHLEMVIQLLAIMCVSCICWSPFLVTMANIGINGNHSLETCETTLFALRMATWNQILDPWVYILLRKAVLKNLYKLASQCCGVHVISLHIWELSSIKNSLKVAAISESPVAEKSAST
row,Structure (SMILES),IC50 [nM]
1,"Cc1c(N2CCCC2)nc2ccc(Br)cc2c1C(=O)NCC(CCC(=O)O)c1c(Cl)ccc(Cl)c1Cl (racemic) [Example 174, (+/−)-5-({[6-Bromo-3-methyl-2-(pyrrolidin-1-yl)quinolin-4-yl]carbonyl}amino)-4-(2,3,6-trichlorophenyl)pentanoic acid]",11
2,"Cc1c(N2CCSCC2)nc2ccc(Br)cc2c1C(=O)NCC(CCC(=O)O)c1cc(F)ccc1Cl (racemic) [Example 11, (+/−)-5-({[6-Bromo-3-methyl-2-(thiomorpholin-4-yl)quinolin-4-yl]carbonyl}amino)-4-(2-chloro-5-fluorophenyl)pentanoic acid]",25
3,"Cc1c(N2CC3CCCCC3C2)nc2ccc(Br)cc2c1C(=O)NCC(CCC(=O)O)c1ccccc1Cl (racemic) [Example 86, (+/−)-5-({[6-Bromo-3-methyl-2-(octahydro-2H-isoindol-2-yl)quinolin-4-yl]carbonyl}amino)-4-(2-chlorophenyl)pentanoic acid]",330
4,"Cc1c(N2CCCCC2)nc2ccc(Br)cc2c1C(=O)NCC(CCC(=O)O)c1c(Cl)ccc(F)c1F (single isomer, unassigned; (-)) [Example 145, (−)-5-({[6-Bromo-3-methyl-2-(piperidin-1-yl)quinolin-4-yl]carbonyl}amino)-4-(6-chloro-2,3-difluorophenyl)pentanoic acid]",1.5
5,"Cc1c(N2CCC(F)(F)CC2)nc2ccc(Br)cc2c1C(=O)NCC(CCC(=O)O)c1ccccc1Cl (racemic) [Example 28, (+/−)-5-({[6-Bromo-2-(4,4-difluoropiperidin-1-yl)-3-methylquinolin-4-yl]carbonyl}amino)-4-(2-chlorophenyl)pentanoic acid]",31
6,"Cc1c(N2CCSCC2)nc2ccc(Br)cc2c1C(=O)NCC(CCC(=O)O)c1ccccc1Cl (racemic) [Example 25, (+/−)-5-({[6-Bromo-3-methyl-2-(thiomorpholin-4-yl)quinolin-4-yl]carbonyl}amino)-4-(2-chlorophenyl)pentanoic acid]",22
7,"Cc1c(N2CCCC(C(F)(F)F)C2)nc2ccc(Br)cc2c1C(=O)NCC(CCC(=O)O)c1ccccc1Cl (stereo not shown) [Example 53, 5-[({6-Bromo-3-methyl-2-[3-(trifluoromethyl)piperidin-1-yl]quinolin-4-yl}carbonyl)amino]-4-(2-chlorophenyl)pentanoic acid]",5.7
8,"Cc1c(N2CCC(F)(F)C2)nc2ccc(Br)cc2c1C(=O)NCC(CCC(=O)O)c1ccccc1Cl (racemic) [Example 37, (+/−)-5-({[6-Bromo-2-(3,3-difluoropyrrolidin-1-yl)-3-methylquinolin-4-yl]carbonyl}amino)-4-(2-chlorophenyl)pentanoic acid]",22
9,"Cc1c(N2CCCC3(CC3)C2)nc2ccc(Br)cc2c1C(=O)NCC(CCC(=O)O)c1ccccc1Cl (racemic) [Example 110, (+/−)-5-({[2-(5-Azaspiro[2.5]oct-5-yl)-6-bromo-3-methylquinolin-4-yl]carbonyl}amino)-4-(2-chlorophenyl)pentanoic acid]",24
10,"COCC1CCCN(c2nc3ccc(Br)cc3c(C(=O)NCC(CCC(=O)O)c3ccccc3Cl)c2C)C1 (stereo not shown) [Example 93, 5-[({6-Bromo-2-[3-(methoxymethyl)piperidin-1-yl]-3-methylquinolin-4-yl}carbonyl)amino]-4-(2-chlorophenyl)pentanoic acid]",80
11,"Cc1c(N2CCCCC2)nc2ccc(Br)cc2c1C(=O)NCC(CCC(=O)O)c1c(Cl)ccc(F)c1F (racemic) [Example 144, (+/−)-5-({[6-Bromo-3-methyl-2-(piperidin-1-yl)quinolin-4-yl]carbonyl}amino)-4-(6-chloro-2,3-difluorophenyl)pentanoic acid]",2.2
12,"Cc1c(N2CCCC2)nc2ccc(Br)cc2c1C(=O)NCC(CCC(=O)O)c1c(F)cccc1C(F)(F)F (racemic) [Example 163, (+/−)-5-({[6-Bromo-3-methyl-2-(pyrrolidin-1-yl)quinolin-4-yl]carbonyl}amino)-4-[2-fluoro-6-(trifluoromethyl)phenyl]pentanoic acid]",11
13,"Cc1c(N2CCCC(C)C2)nc2ccc(Br)cc2c1C(=O)NCC(CCC(=O)O)c1ccccc1Cl (single isomer, unassigned; (-)) [Example 49, (−)-5-[({6-Bromo-3-methyl-2-[3-methylpiperidin-1-yl]quinolin-4-yl}carbonyl)amino]-4-(2-chlorophenyl)pentanoic acid]",14
14,"Cc1c(N2CCCC(F)(F)C2)nc2ccc(Br)cc2c1C(=O)NCC(CCC(=O)O)c1c(F)cccc1C(F)(F)F (single isomer, unassigned; (-)) [Example 167, (−)-5-({[6-Bromo-2-(3,3-difluoropiperidin-1-yl)-3-methylquinolin-4-yl]carbonyl}amino)-4-[2-fluoro-6-(trifluoromethyl)phenyl]pentanoic acid]",3.7
15,"Cc1c(NC2CCCC2)nc2ccc(Br)cc2c1C(=O)NCC(CCC(=O)O)c1ccccc1Cl (racemic) [Example 103, (+/−)-5-({[6-Bromo-2-(cyclopentylamino)-3-methylquinolin-4-yl]carbonyl}amino)-4-(2-chlorophenyl)pentanoic acid]",340
16,"Cc1c(N2CCCC(F)(F)C2)nc2ccc(Br)cc2c1C(=O)NCC(CCC(=O)O)c1c(F)ccc(F)c1Cl (single isomer, unassigned; (+)) [Example 217, (+)-5-({[6-Bromo-2-(3,3-difluoropiperidin-1-yl)-3-methylquinolin-4-yl]carbonyl}amino)-4-(2-chloro-3,6-difluorophenyl)pentanoic acid]",50
17,"Cc1c(N2CCCC(C(N)=O)C2)nc2ccc(Br)cc2c1C(=O)NCC(CCC(=O)O)c1ccccc1Cl (stereo not shown) [Example 85, 5-[({6-Bromo-2-[3-carbamoylpiperidin-1-yl]-3-methylquinolin-4-yl}carbonyl)amino]-4-(2-chlorophenyl)pentanoic acid]",590
18,"Cc1c(N2CCCC2)nc2ccc(Br)cc2c1C(=O)NCC(CCC(=O)O)c1cc(F)ccc1F (racemic) [Example 258, (+/−)-5-({[6-Bromo-3-methyl-2-(pyrrolidin-1-yl)quinolin-4-yl]carbonyl}amino)-4-(2,5-difluorophenyl)pentanoic acid]",80
19,"Cc1c(N2CCCC(F)(F)C2)nc2ccc(Br)cc2c1C(=O)NCC(CCC(=O)O)c1c(F)ccc(F)c1Cl (single isomer, unassigned; (-)) [Example 218, (−)-5-({[6-Bromo-2-(3,3-difluoropiperidin-1-yl)-3-methylquinolin-4-yl]carbonyl}amino)-4-(2-chloro-3,6-difluorophenyl)pentanoic acid]",1.2
20,"Cc1c(N2CC=CCC2)nc2ccc(Br)cc2c1C(=O)NCC(CCC(=O)O)c1cc(F)ccc1Cl (racemic) [Example 10, (+/−)-5-({[6-Bromo-2-(3,6-dihydropyridin-1(2H)-yl)-3-methylquinolin-4-yl]carbonyl}amino)-4-(2-chloro-5-fluorophenyl)pentanoic acid]",36
21,"COc1ccccc1C(CCC(=O)O)CNC(=O)c1c(C)c(N2CCCC2)nc2ccc(Br)cc12 (single isomer, unassigned; (+)) [Example 237, (+)-5-({[6-Bromo-3-methyl-2-(pyrrolidin-1-yl)quinolin-4-yl]carbonyl}amino)-4-(2-methoxyphenyl)pentanoic acid]",4.3
22,"Cc1c(N2CC=CCC2)nc2ccc(Br)cc2c1C(=O)NCC(CCC(=O)O)c1ccccc1Cl (single isomer, unassigned) [Example 30, 5-({[6-Bromo-2-(3,6-dihydropyridin-1(2H)-yl)-3-methylquinolin-4-yl]carbonyl}amino)-4-(2-chlorophenyl)pentanoic acid]",8.7
23,"COc1ccccc1C(CCC(=O)O)CNC(=O)c1c(C)c(N2CCCCC2)nc2ccc(Br)cc12 (single isomer, unassigned; (-)) [Example 236, (−)-5-({[6-Bromo-3-methyl-2-(piperidin-1-yl)quinolin-4-yl]carbonyl}amino)-4-(2-methoxyphenyl)pentanoic acid]",11
24,"[2H]C1([2H])N(c2nc3ccc(Br)cc3c(C(=O)NCC(CCC(=O)O)c3ccccc3OC(F)(F)F)c2C)C([2H])([2H])C([2H])([2H])C1([2H])[2H] (single isomer, unassigned; (+)) [Example 279, (+)-5-[({6-Bromo-3-methyl-2-[(^2H8)pyrrolidin-1-yl]quinolin-4-yl}carbonyl)amino]-4-[2-(trifluoromethyl)phenyl]pentanoic acid]",11
25,"COC1CN(c2nc3ccc(Br)cc3c(C(=O)NCC(CCC(=O)O)c3ccccc3Cl)c2C)C1 (racemic) [Example 92, (+/−)-5-({[6-Bromo-2-(3-methoxyazetidin-1-yl)-3-methylquinolin-4-yl]carbonyl}amino)-4-(2-chlorophenyl)pentanoic acid]",390
26,"Cc1c(N2CCCCCC2)nc2ccc(Br)cc2c1C(=O)NCC(CCC(=O)O)c1ccccc1OC(F)(F)F (single isomer, unassigned; (+)) [Example 137, (+)-5-({[2-(Azepan-1-yl)-6-bromo-3-methylquinolin-4-yl]carbonyl}amino)-4-[2-(trifluoromethoxy)phenyl]pentanoic acid]",3.8
27,"Cc1c(N2CCCC(C)(C)C2)nc2ccc(Br)cc2c1C(=O)NCC(CCC(=O)O)c1ccccc1Cl (single isomer, unassigned; (-)) [Example 43, (−)-5-({[6-Bromo-2-(3,3-dimethylpiperidin-1-yl)-3-methylquinolin-4-yl]carbonyl}amino)-4-(2-chlorophenyl)pentanoic acid]",90
28,"CCC1CCCN(c2nc3ccc(Br)cc3c(C(=O)NCC(CCC(=O)O)c3ccccc3C(F)(F)F)c2C)C1 (single isomer, unassigned; (+)) [Example 196, (+)-5-[({6-Bromo-2-[3-ethylpiperidin-1-yl]-3-methylquinolin-4-yl}carbonyl)amino]-4-[2-(trifluoromethyl)phenyl]pentanoic acid]",2.6
